From patent US20230117324A1, “OXAZINE MONOACYLGLYCEROL LIPASE (MAGL) INHIBITORS” (Hoffmann-La Roche Inc., priority 2018, published 2023) come the findings set out here.

Each structure is given as a SMILES string.

The first experiment concerns the target T1, MAGL (recombinant wild-type) (Homo sapiens, UniProt Q99685).
T1 sequence (Q99685 1-303): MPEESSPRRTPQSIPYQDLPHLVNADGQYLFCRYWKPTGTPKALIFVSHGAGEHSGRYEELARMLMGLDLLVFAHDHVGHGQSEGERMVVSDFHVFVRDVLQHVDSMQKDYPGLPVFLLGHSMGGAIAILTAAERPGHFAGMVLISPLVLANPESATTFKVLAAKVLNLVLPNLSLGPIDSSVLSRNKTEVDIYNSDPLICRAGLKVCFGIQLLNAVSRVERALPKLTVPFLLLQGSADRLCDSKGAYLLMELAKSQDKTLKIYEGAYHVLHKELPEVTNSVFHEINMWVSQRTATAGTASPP
Put plainly: MAGL inhibition, 4-NPA assay (hydrolysis of 4-nitrophenylacetate, absorbance at 405 nm). The format is biochemical. The following applies: 4-NPA assay (footnote [a]: values not marked [b]). Here is the method:
Compounds were profiled for MAGL inhibitory activity by measuring the enzymatic activity of MAGL by following the hydrolysis of 4-nitrophenylacetate resulting in 4-nitrophenol, which absorbs at 405-412 nm (G. G. Muccioli, G. Labar, D. M. Lambert, Chem. Bio. Chem. 2008, 9, 2704-2710). This assay is hereinafter abbreviated “4-NPA assay”.
The assay was carried out in 384 well assay plates (black with clear bottom, non-binding surface treated, Corning Ref. 3655) in a total volume of 40 μL. Compound dilutions were made in 100% DMSO (VWR Chemicals 23500.297) in a polypropylene plate in 3-fold dilution steps to give a final concentration range in the assay from 25 μM to 1.7 nM. 1 μL compound dilutions (100% DMSO) were added to 19 μL MAGL (recombinant wild-type) in assay buffer (50 mM TRIS (GIBCO, 15567-027), 1 mM EDTA (Fluka, 03690-100 mL)). The plate was shaked for 1 min at 2000 rpm (Variomag Teleshake) and then incubated for 15 min at RT. To start the reaction, 20 μL 4-Nitrophenlyacetate (Sigma N-8130) in assay buffer with 6% EtOH was added. The final concentrations in the assay were 1 nM MAGL and 300 μM 4-Nitrophenylacetate. After shaking (1 min, 2000 rpm) and 5 min incubation at RT, the absorbance at 405 nm was measured for a first time (Molecular Devices, SpectraMax Paradigm). A second measurement was then done after incubation for 80 min at RT. From the two measurements, the slope was calculated by subtracting the first from the second measurement.
Turning to `O=C1CO[C@H]2CCN(C(=O)N3CCC(C(c4ccccc4)c4ccccc4)CC3)C[C@H]2N1` (racemic) [Example 1, rac-(4aR,8aS)-6-(4-Benzhydrylpiperidine-1-carbonyl)-4,4a,5,7,8,8a-hexahydropyrido[4,3-b][1,4]oxazin-3-one], the IC50 was found to be 3 nM. On the same count and under the same terms, as for `O=C1CO[C@H]2CCN(C(=O)N3CCC(C(F)(F)c4ccc(Cl)cc4)CC3)C[C@H]2N1` (single isomer, unassigned) [Example 37, (+) or (−)-cis-6-(4-((4-Chlorophenyl)difluoromethyl)piperidine-1-carbonyl)hexahydro-2H-pyrido[4,3-b][1,4]oxazin-3(4H)-one], the figure is 34 nM; as for `CC(F)(F)c1ccc(C2CCN(C(=O)N3CC[C@@H]4OCC(=O)N[C@@H]4C3)CC2)nc1` (single isomer, unassigned) [Example 41, (+) or (−)-cis-6-(4-(5-(1,1-Difluoroethyl)pyridin-2-yl)piperidine-1-carbonyl)hexahydro-2H-pyrido[4,3-b][1,4]oxazin-3(4H)-one], 485 nM.

On to `O=C1CO[C@H]2CCN(C(=O)N3CCC(c4cn(C5CC5)c5ccc(Cl)cc45)CC3)C[C@H]2N1` (single isomer, unassigned) [Example 19, (+)-or (−)-cis-6-(4-(5-Chloro-1-cyclopropyl-1H-indol-3-yl)piperidine-1-carbonyl)hexahydro-2H-pyrido[4,3-b][1,4]oxazin-3(4H)-one], for which the IC50 was 1 nM.

For `O=C1CO[C@@H]2CCN(C(=O)N3CCC(C(c4ccc(F)cc4)c4ccc(F)cc4)CC3)C[C@@H]2N1` (single isomer, unassigned) [Example 36, (+) or (−)-cis-6-(4-(Bis(4-fluorophenyl)methyl)piperidine-1-carbonyl)hexahydro-2H-pyrido[4,3-b][1,4]oxazin-3(4H)-one], the IC50 was 85 nM.

Take `O=C1CO[C@H]2CCN(C(=O)N3CC(C(c4ccc(F)cc4)c4ccc(F)cc4)C3)C[C@H]2N1` [Example 82, (4aR,8aS)-6-(3-(bis(4-Fluorophenyl)methyl)azetidine-1-carbonyl)hexahydro-2H-pyrido[4,3-b][1,4]oxazin-3(4H)-one]: the IC50 was determined as 1200 nM.

Consider `Cn1ncc2cc(C3CCN(C(=O)N4CC[C@@H]5OCC(=O)N[C@@H]5C4)CC3)ccc21` (racemic) [Example 16, rac-(4aR,8aS)-6-(4-(1-Methyl-1H-indazol-5-yl)piperidine-1-carbonyl)hexahydro-2H-pyrido[4,3-b][1,4]oxazin-3(4H)-one], for which the IC50 turned out to be 1500 nM.

Turning to `O=C1CO[C@@H]2CCN(C(=O)N3CCN(C(c4ccc(F)cc4)c4ccc(F)cc4)CC3)C[C@@H]2N1` (stereo in doubt) [Example 13, (−)-(cis)-6-(4-(bis(4-Fluorophenyl)methyl)piperazine-1-carbonyl)hexahydro-2H-pyrido[4,3-b][1,4]oxazin-3(4H)-one], the IC50 came to 88 nM. With `O=C1CO[C@H]2CCN(C(=O)N3CCC(c4cn(C(CO)CCl)c5ccc(Cl)cc45)CC3)C[C@H]2N1` (mixture of isomers) [Example 20, rac-(4aR,8aS)-6-(4-(5-Chloro-1-(1-chloro-3-hydroxypropan-2-yl)-1H-indol-3-yl)piperidine-1-carbonyl)hexahydro-2H-pyrido[4,3-b][1,4]oxazin-3(4H)-one], the IC50 amounted to 2 nM. The same measure, in the same setting: as for `O=C1CO[C@H]2CCN(C(=O)N3CCN(C(c4ccc(F)cc4)c4ccc(F)cc4)CC3)C[C@H]2N1` (racemic) [Example 12, rac-(4aR,8aS)-6-[4-[bis(4-Fluorophenyl)methyl]piperazine-1-carbonyl]-4,4a,5,7,8,8a-hexahydropyrido[4,3-b][1,4]oxazin-3-one], the figure is 12 nM. On to `CCc1cncc(C2CCN(C(=O)N3CC[C@@H]4OCC(=O)N[C@@H]4C3)CC2)c1` (single isomer, unassigned) [Example 40, (+) or (−)-cis-6-(4-(5-Ethylpyridin-3-yl)piperidine-1-carbonyl)hexahydro-2H-pyrido[4,3-b][1,4]oxazin-3(4H)-one], for which the IC50 was determined as 683 nM. The same measure, in the same setting: as for `O=C1CO[C@H]2CCN(C(=O)N3CCC(C(CCO)c4ccc(F)cc4)CC3)C[C@H]2N1` (mixture of isomers) [Example 26, rac-cis-6-(4-(1-(4-Fluorophenyl)-3-hydroxypropyl)piperidine-1-carbonyl)hexahydro-2H-pyrido[4,3-b][1,4]oxazin-3(4H)-one], the figure is 33 nM. As for `O=C1CO[C@H]2CCN(C(=O)N3CCC([C@H](CCO)c4ccc(F)cc4)CC3)C[C@H]2N1` (single isomer, unassigned) [Example 32, (−)-(4aR,8aS)--6-(4-((S or R)-1-(4-Fluorophenyl)-3-hydroxypropyl)piperidine-1-carbonyl)hexahydro-2H-pyrido[4,3-b][1,4]oxazin-3(4H)-one], the IC50 worked out at 203 nM.

For the compound `COC(c1ccc(F)cc1)C1CCN(C(=O)N2CC[C@@H]3OCC(=O)N[C@@H]3C2)CC1` (mixture of isomers) [Example 8, rac-(4aR,8aS)-6-(4-((4-Fluorophenyl)(methoxy)methyl)piperidine-1-carbonyl)hexahydro-2H-pyrido[4,3-b][1,4]oxazin-3(4H)-one], the IC50 is 91 nM.

Turning to `Cn1nc(C2CCN(C(=O)N3CC[C@@H]4OCC(=O)N[C@@H]4C3)CC2)c2ccc(Cl)cc21` (single isomer, unassigned) [Example 42, (+) or (−)-cis-6-(4-(6-Chloro-1-methyl-1H-indazol-3-yl)piperidine-1-carbonyl)hexahydro-2H-pyrido[4,3-b][1,4]oxazin-3(4H)-one], the IC50 is 103 nM. With `CC(c1ccc(C(F)(F)F)cc1)C1CCN(C(=O)N2CC[C@@H]3OCC(=O)N[C@@H]3C2)CC1` (mixture of isomers) [Example 27, (4aR,8aS)-6-(4-(1-(4-(Trifluoromethyl)phenyl)ethyl)piperidine-1-carbonyl)hexahydro-2H-pyrido[4,3-b][1,4]oxazin-3(4H)-one], the concentration for half-maximal inhibition (IC50) came out at 5 nM. With `O=C1CO[C@H]2CCN(C(=O)N3CCC(c4cncc(C(F)(F)F)c4)CC3)C[C@H]2N1` [Example 29, (4aR,8aS)-6-(4-(5-(Trifluoromethyl)pyridin-3-yl)piperidine-1-carbonyl)hexahydro-2H-pyrido[4,3-b][1,4]oxazin-3(4H)-one], the IC50 was determined as 703 nM.

For `N#C/C(=C\N1CCN(C(=O)N2CC[C@@H]3OCC(=O)N[C@@H]3C2)CC1)c1ccccc1` (racemic) [Example 18, (E/Z)-3-[4-[rac-(4aS,8aR)-3-oxo-4,4a,5,7,8,8a-hexahydropyrido[4,3-b][1,4]oxazine-6-carbonyl]piperazin-1-yl]-2-phenylprop-2-enenitrile], the IC50 worked out at 2100 nM. The same measure, in the same setting: as for `O=C1CO[C@H]2CCN(C(=O)N3CCC(C4c5ccccc5-c5ccccc54)CC3)C[C@H]2N1` (racemic) [Example 4, rac-(4aR,8aS)-6-(4-(9H-Fluoren-9-yl)piperidine-1-carbonyl)hexahydro-2H-pyrido[4,3-b][1,4]oxazin-3(4H)-one], the figure is 5 nM.

For the next experiment, the target named is T2, MAGL (Homo sapiens, UniProt Q99685).
T2 sequence (Q99685 1-303): T1 sequence (Q99685 1-303)
Put plainly: MAGL inhibition, 2-AG assay (hydrolysis of 2-arachidonoylglycerol, arachidonic acid by mass spectrometry). The settings on record: 2-AG assay (footnote [b]). Format: biochemical. In outline:
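Human MAGL […] was preincubated 15 min at RT with compound ([…], 3-fold steps) in 50 mM Tris, 1 mM EDTA, 0.01% Tween. 2-AG (8 μM) was then added for 30 min at RT. Arachidonic acid was quantified by RapidFire SPE–triple quadrupole MS in negative ESI as its ratio to a d8-arachidonic acid standard.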
Consider `O=C1CO[C@H]2CCN(C(=O)N3CCC(C(Oc4ccc(F)cc4Cl)C(F)(F)F)CC3)C[C@H]2N1` (stereo partly drawn) [Example 81, (4aR,8aS)-6-(4-(1-(2-Chloro-4-fluorophenoxy)-2,2,2-trifluoroethyl)piperidine-1-carbonyl)hexahydro-2H-pyrido[4,3-b][1,4]oxazin-3(4H)-one], for which the IC50 was 3 nM.
